Reference: patent US20100035756A1, “TRIAZOLOPHYRIDINE DERIVATIVES AS HERBICIDES” (SYNGENTA LIMITED, priority 2006, published 2010)

Assays:
Assay type in all cases: in vivo
[1] = system: Amaranthus retroflexus; assay: Microscreen (pre-emergence), Example B3; conditions: preemergent application, 250 g/ha, evaluated 8 days later, 100%=total damage
[2] = system: Agrostis tenuis; assay: Microscreen (pre-emergence), Example B3; conditions: preemergent application, 250 g/ha, evaluated 8 days later, 100%=total damage
[3] = system: Solanum nigrum; assay: Microscreen (pre-emergence), Example B3; conditions: preemergent application, 250 g/ha, evaluated 8 days later, 100%=total damage
[4] = system: Stellaria media; assay: Microscreen (pre-emergence), Example B3; conditions: preemergent application, 250 g/ha, evaluated 8 days later, 100%=total damage
[5] = system: Setaria italica; assay: Microscreen (pre-emergence), Example B3; conditions: preemergent application, 250 g/ha, evaluated 8 days later, 100%=total damage
[6] = system: Monocotyledonous and dicotyledonous test plants; assay: Herbicidal action after emergence of the plants (post-emergence herbicidal action), Example B2; conditions: postemergent application, 125 g/ha, 2- to 3-leaf stage, evaluated after 2-3 weeks, 100%=total damage
Protocol: Monocotyledonous and dicotyledonous test plants are sown in seed trays in standard soil. When the test plants are at the 2- to 3-leaf stage, the test compounds are applied by spraying in the form of an aqueous suspension (prepared from a wettable powder (Example F3, b) according to WO 97/34485) or in the form of an emulsion (prepared from an emulsifiable concentrate (Example F1, c) according to WO 97/34485) in a concentration of 125 g/ha. The test plants are then grown on in a greenhouse under optimum conditions. After a 2- to 3-week test period, the test is evaluated (100%=total damage to plant; 0%=no damage to plant).

[7] = system: Digitaria sanguinalis; assay: Microscreen (pre-emergence), Example B3; conditions: preemergent application, 250 g/ha, evaluated 8 days later, 100%=total damage
[8] = system: Monocotyledonous and dicotyledonous test plants; assay: Herbicidal action prior to emergence of the plants (pre-emergence action), Example B1; conditions: preemergence application, 250 g/ha, evaluated after 4 weeks, 100%=total damage, 0%=no damage
How it was run: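 Monocot and dicot species were sown in standard soil and sprayed pre-emergence, right after sowing, at 250 g/ha as an aqueous suspension or emulsion. Plants were grown in a greenhouse for 4 weeks. Damage was scored from 0% (none) to 100% (total).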

[9] = system: Nasturtium officinale; assay: Microscreen (pre-emergence), Example B3; conditions: preemergent application, 250 g/ha, evaluated 8 days later, 100%=total damage

Row | SMILES | herbicidal damage, Amaranthus [1] [%] | herbicidal damage, Agrostis [2] [%] | herbicidal damage, Solanum [3] [%] | herbicidal damage, Stellaria [4] [%] | herbicidal damage, ABUTH [6] [%] | herbicidal damage, AMARE [6] [%] | herbicidal damage, CHEAL [6] [%] | herbicidal damage, DIGSA [6] [%] | herbicidal damage, SETFA [6] [%] | herbicidal damage, SINAR [6] [%] | herbicidal damage, VERPE [6] [%] | herbicidal damage, XANST [6] [%] | herbicidal damage, ABUTH [8] [%] | herbicidal damage, AMARE [8] [%] | herbicidal damage, BRAPL [8] [%] | herbicidal damage, DIGSA [8] [%] | herbicidal damage, ECHCG [8] [%] | herbicidal damage, SETFA [8] [%] | herbicidal damage, VERPE [8] [%] | herbicidal damage, STEME [8] [%] | also measured
1 | O=C(C1=C(O)C2CCC(C2)C1=O)c1ccc(C(F)(F)F)n2c(C3CC3)nnc12 (centres unmarked) [Compound 1.8] | 0 | 100 | 90 | 80 | 90 | 90 | 90 | 80 | 80 | 90 | 100 | 90 | 100 | 100 | 100 | 100 | 40 | 60 | 70 |  | herbicidal damage, Setaria [5]: 100%; herbicidal damage, Digitaria [7]: 100%; herbicidal damage, Nasturtium [9]: 100%
2 | CCCC1CCC(=O)C(C(=O)c2ccc(C(F)(F)F)n3c(C)nnc23)=C1O (centres unmarked) [41.6] | 100 | 100 | 90 | 80 | 80 | 80 | 80 | 80 | 70 | 80 | 80 | 80 | 70 | 100 | 60 | 90 | 70 | 70 | 50 | 50 | herbicidal damage, Setaria [5]: 0%; herbicidal damage, Digitaria [7]: 90%; herbicidal damage, Nasturtium [9]: 100%
3 | Cc1nnc2c(C(=O)C3=C(O)CC(C)CC3=O)ccc(C(F)(F)F)n12 (centres unmarked) [Compound 4.3] | 100 | 100 | 100 | 80 |  |  |  |  |  |  |  |  | 70 | 100 | 100 | 100 | 100 | 40 | 100 | 80 | herbicidal damage, Setaria [5]: 60%; herbicidal damage, Digitaria [7]: 100%; herbicidal damage, Nasturtium [9]: 100%
4 | Cc1nnc2c(C(=O)C3=C(O)C4(CCC3=O)CC4)ccc(C(F)(F)F)n12 [41.2] | 100 | 100 | 100 | 90 |  |  |  |  |  |  |  |  | 80 | 100 | 80 | 100 | 100 | 80 | 90 | 70 | herbicidal damage, Setaria [5]: 80%; herbicidal damage, Digitaria [7]: 100%; herbicidal damage, Nasturtium [9]: 100%
5 | CC(C)c1nnc2c(C(=O)C3=C(O)C4CCC(C4)C3=O)ccc(C(F)(F)F)n12 (centres unmarked) [Compound 1.7] |  |  |  |  | 90 | 90 | 80 | 80 | 70 | 80 | 90 | 80 | 100 | 100 | 80 | 100 | 80 | 80 | 100 | 100 | 
6 | Cc1nc2c(C(=O)C3=C(O)C4CCC(C4)C3=O)ccc(C(F)(F)F)n2n1 (centres unmarked) [2.4] |  |  |  |  | 80 | 80 | 80 | 70 | 70 | 80 | 30 | 80 | 70 | 60 | 10 | 30 |  | 20 | 10 | 60 | 
7 | CCc1nnc2c(C(=O)C3=C(O)CCCC3=O)ccc(C(F)(F)F)n12 [Compound 3.5] |  |  |  |  | 90 | 100 | 90 | 80 | 70 | 80 | 90 | 80 | 100 | 70 | 80 | 90 | 70 | 90 | 30 | 60 | 
